Source: US20090181975A1, “NEBIVOLOL IN THE TREATMENT OF SEXUAL DYSFUNCTION” (FOREST LABORATORIES HOLDINGS LIMITED, priority 2008, published 2009)

Key:
anesthetized rats = assay: Mean arterial pressure (MAP) and heart rate (HR) in anesthetized rats; format: in vivo, rat (Sprague-Dawley); conditions: nebivolol 3 mg/kg i.v.; L-NAME 3 mg/kg, ODQ 1 mg/kg, propranolol 1 mg/kg, sildenafil 0.3 mg/kg i.v.
Method: To determine blood pressure and heart rate, Sprague-Dawley rats (250-400 g) were anesthetized with ketolar and diazepam. The right carotid artery was catheterized for constant blood pressure and heart rate measurement by means of a pressure transducer connected to a PowerLab data acquisition system (ADInstruments). The left external jugular vein was catheterized for saline or drug infusion. 3 mg/kg nebivolol (n=6) or vehicle (50% glycofurol; n=4) was administered intravenously in anesthetized rats and MAP and HR were measured. […] The effect of nebivolol in combination with the type 5 phosphodiesterase (PDE-5) inhibitor sildenafil on hypotension and heart rate was studied in rats using the methods described above.

[1] = tested on: nitrite plus nitrate (NOx) in rat serum; assay: Serum nitrite plus nitrate (NOx) by Griess colorimetric method; format: in vivo; conditions: nebivolol 3 mg/kg i.v.; L-NAME 3 mg/kg, ODQ 1 mg/kg, propranolol 1 mg/kg, sildenafil 0.3 mg/kg
Method: Total NO derivatives (nitrites plus nitrates) were measured in pre-filtered (10,000 MW pore size) serum samples from the studied rats by the Griess colorimetric method, using a commercial kit for nitrite and nitrate determination from Cayman Chemical Co. (Ann Arbor, Mich.). Serum concentrations of NOx were determined 10 minutes after nebivolol administration.

cGMP in rat plasma = assay: Plasma cGMP content by ELISA; format: in vivo, rat (Sprague-Dawley); conditions: nebivolol 3 mg/kg i.v.; L-NAME 3 mg/kg, ODQ 1 mg/kg, propranolol 1 mg/kg
Method: To determine the plasma cGMP content, Sprague-Dawley rats were anesthetized with urethane (1.25 g/kg). The right carotid artery was catheterized for constant blood pressure and heart rate measurement by means of a pressure transducer connected to a PowerLab data acquisition system (ADInstruments). The left external jugular vein was catheterized for saline or drug infusion. After administering the respective treatments, rat plasma samples were collected, immediately frozen and stored at −80° C. until extraction for cyclic nucleotide assay. cGMP was determined by ELISA using a kit from Cayman Chemical Co. Plasmatic cGMP levels were determined 10 minutes after nebivolol administration.

[2] = tested on: human penile resistance arteries (HPRA); assay: Relaxation of human penile resistance arteries contracted with U46619 (myograph); format: cell-based; set-up: effect on endothelium-dependent relaxation of HPRA caused by acetylcholine / effect on sildenafil-mediated relaxation of HPRA: unit of the concentration uncertain; conditions: metoprolol (1 (unit uncertain)), atenolol (1 (unit uncertain)), nebivolol (0.3 (unit uncertain))
Method: Specimens of human corpus cavernosum were obtained from organ donors and from impotent men at the time of penile prosthesis implantation. Tissues were placed in ice-cold M-400 solution (pH 7.4; 400 mOsm/kg, composition in w/v: 4.19% manitol, 0.2% KH2PO4, 0.97% K2HPO4.3H2O, 0.11% KCl and 0.08% NaHCO3) at the time of removal and transported to the laboratory for utilization within 16 h.
To determine the resistance of penile small arteries, helicine arteries (lumen diameter 150-400 μm) which are the terminal branches of deep penile arteries, were dissected by carefully removing the adhering trabecular tissue, and arterial ring segments (2 mm long) were subsequently mounted on two 40 μm wires on microvascular double Halpern-Mulvany myographs (J.P. Trading, Aarhus, Denmark) for isometric tension recordings. The chambers were filled with PSS continuously bubbled with 95% O2/5% CO2 mixture to maintain a pH of 7.4. […]

[3] = tested on: human corpus cavernosum (HCC) strips; assay: Relaxation of human corpus cavernosum strips contracted with U46619; format: cell-based; conditions: metoprolol 1 μM, atenolol 1 μM, nebivolol 0.3 μM
Method: Specimens of human corpus cavernosum were obtained from organ donors and from impotent men at the time of penile prosthesis implantation. Tissues were placed in ice-cold M-400 solution (pH 7.4; 400 mOsm/kg, composition in w/v: 4.19% manitol, 0.2% KH2PO4, 0.97% K2HPO4.3H2O, 0.11% KCl and 0.08% NaHCO3) at the time of removal and transported to the laboratory for utilization within 16 h. Strips of human corpus cavemosum were mounted on force transducers in 8 ml organ baths (37° C.) containing physiological salt solution (PSS) continuously bubbled with 95% O2/5% CO2 mixture to maintain a pH of 7.4. Strips were contracted with the thromboxane receptor agonist U46619 (1-3 nM) and relaxation responses were evaluated by cumulative additions of compounds to the chambers.

Compound | effect on heart rate reduction caused by nebivolol (anesthetized rats) | effect on hypotension caused by nebivolol (anesthetized rats) | effect on nebivolol-induced increment in serum NOx [1] | effect on nebivolol-induced increase in plasma cGMP (cGMP in rat plasma) | effect on endothelium-dependent relaxation of HPRA caused by acetylcholine [2] | effect on acetylcholine-induced endothelium-dependent relaxation of HCC strips [3]
COC(=O)[C@@H](N)CCCNC(=N)N[N+](=O)[O-] [L-NAME, Nω-nitro-L-arginine methyl ester] | did not affect | significantly reduced | prevents this effect | slightly reduced | – | –
O=c1onc2cnc3ccccc3n12 [ODQ, 1-H-(1,2,4)oxadiazolo(4,3-alpha)quinoxaline-1-one] | did not significantly modify | did not significantly modify | prevents this effect | slightly reduced | – | –
COCCc1ccc(OCC(O)CNC(C)C)cc1 (stereo not shown) [metoprolol] | – | – | – | – | not affected | not significantly modified
CC(C)NCC(O)COc1cccc2ccccc12 (stereo not shown) [propranolol] | significantly reduced the impact | without affecting | – | not influenced | – | –
